This note sets out measurements from patent publication US9820989B2, “Method of treating conditions with kinase inhibitors” (Allergan, Inc., priority 2012, dated 2017).

This assay concerns the target PDGFRβ kinase (Homo sapiens (Human), UniProt P09619). Briefly: PDGFRβ Kinase Assay (biochemical, poly-Glu-Tyr ELISA). The following applies: purified cytoplasmic domain PDGFR-b protein, 36 μM ATP. The method, then:
Biochemical PDGFRβ kinase assays were performed in 96 well microliter plates that were coated overnight with 75 μg of poly-Glu-Tyr (4:1) in 10 mM Phosphate Buffered Saline (PBS), pH 7.4. The coated plates were washed with 2 mls per well PBS+0.05% Tween-20 (PBS-T), blocked by incubation with PBS containing 1% BSA, then washed with 2 mls per well PBS-T prior to starting the reaction. Reactions were carried out in 100 μL reaction volumes containing 36 μM ATP in kinase buffer (50 mM Hepes buffer pH 7.4, 20 mM MgCl2, 0.1 mM MnCl2 and 0.2 mM Na3VO4). Test compounds were reconstituted in 100% DMSO and added to the reaction to give a final DMSO concentration of 5%. Reactions were initiated by the addition 20 ul per well of kinase buffer containing 200-300 ng purified cytoplasmic domain PDGFR-b protein (Millipore). […] The reaction was terminated by the addition of 100 μl of 2.5N H2SO4 to each well and read using a microplate ELISA reader set at 492 nm. IC50 values for compound inhibition were calculated directly from graphs of optical density (arbitrary units) versus compound concentration following subtraction of blank values.
IC50 values for test compounds were calculated from % inhibition of PDGF-BB stimulated responses in the absence of inhibitor.

As a reminder, the IC50 is the concentration that gives 50% inhibition. Read a low IC50 as higher potency.

PDGFRβ kinase, sequence (P09619 554-1106): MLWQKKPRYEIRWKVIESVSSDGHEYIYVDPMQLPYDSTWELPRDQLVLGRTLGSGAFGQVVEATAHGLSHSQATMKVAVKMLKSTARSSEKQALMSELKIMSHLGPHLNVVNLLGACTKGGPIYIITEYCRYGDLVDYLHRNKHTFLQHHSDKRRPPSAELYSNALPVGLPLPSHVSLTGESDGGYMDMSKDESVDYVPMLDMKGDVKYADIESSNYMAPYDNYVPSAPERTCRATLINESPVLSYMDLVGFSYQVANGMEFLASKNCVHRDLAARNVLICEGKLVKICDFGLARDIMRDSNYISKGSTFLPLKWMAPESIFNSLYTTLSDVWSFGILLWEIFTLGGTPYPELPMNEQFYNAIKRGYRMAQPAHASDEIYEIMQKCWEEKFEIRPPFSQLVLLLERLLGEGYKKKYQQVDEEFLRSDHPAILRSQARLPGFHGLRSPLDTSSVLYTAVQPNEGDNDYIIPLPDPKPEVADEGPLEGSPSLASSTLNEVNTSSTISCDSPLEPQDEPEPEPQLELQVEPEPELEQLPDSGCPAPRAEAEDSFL

`CC(C)c1ccc(NC(=O)c2cc(N3Cc4cnc(N)nc4C3)ccn2)cc1` [Example 83, 4-(2-amino-5,7-dihydro-6H-pyrrolo[3,4-d]pyrimidin-6-yl)-N-(4-isopropylphenyl)pyridine-2-carboxamide] came in with an IC50 above 10 µM.
